The term IC50 denotes the concentration at which inhibition is half-maximal.

SMILES strings stand for the structures.

human PAD4, sequence (Q9UM07 2-663): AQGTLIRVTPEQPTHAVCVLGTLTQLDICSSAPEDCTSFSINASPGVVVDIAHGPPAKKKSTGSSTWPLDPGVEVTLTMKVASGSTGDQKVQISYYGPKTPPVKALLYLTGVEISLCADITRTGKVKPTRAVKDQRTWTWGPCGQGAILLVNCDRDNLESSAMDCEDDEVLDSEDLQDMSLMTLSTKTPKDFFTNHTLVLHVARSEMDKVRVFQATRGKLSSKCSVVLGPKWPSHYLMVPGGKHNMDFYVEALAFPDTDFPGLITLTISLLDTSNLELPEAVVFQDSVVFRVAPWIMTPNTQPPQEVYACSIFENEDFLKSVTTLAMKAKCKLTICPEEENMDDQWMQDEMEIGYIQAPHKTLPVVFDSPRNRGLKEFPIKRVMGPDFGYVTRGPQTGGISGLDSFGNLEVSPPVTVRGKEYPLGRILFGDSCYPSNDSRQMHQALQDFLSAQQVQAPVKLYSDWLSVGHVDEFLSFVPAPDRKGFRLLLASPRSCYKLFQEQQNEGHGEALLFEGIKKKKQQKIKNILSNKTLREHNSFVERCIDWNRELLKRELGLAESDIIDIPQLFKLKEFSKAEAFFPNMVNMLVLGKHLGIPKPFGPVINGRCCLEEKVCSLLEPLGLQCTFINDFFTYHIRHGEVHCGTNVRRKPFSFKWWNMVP

One experiment addresses human PAD4 (Homo sapiens (Human), UniProt Q9UM07). Kind of experiment: In Vitro PAD4 BAEE Biochemical Assay. The following applies: human PAD4, BAEE substrate; 5 nM PAD4, 2 mM calcium chloride, 3 mM BAEE; geometric mean of multiple experiments. Put shortly:
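Deimination of BAEE substrate (3 mM) measured as ammonia via o-phthalaldehyde–DTT isoindole fluorescence, 405/535 nm. Tag-free bacterially expressed human PAD4 at 5 nM with 2 mM calcium chloride, pH 7.6 MOPS buffer, 30 min compound preincubation then 2 h reaction, both at 25 °C.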
For `C[C@@H](NC(=O)[C@@H]1CC1(F)F)c1ccc2cc(-c3nc4cc(C(=O)N5C[C@H](N)[C@@H]6CC[C@H]5C6)cc(F)c4n3C3CC3)n(CC3CC3)c2n1` [Example 226, (S)-N-((R)-1-(2-(5-((1S,4R,5R)-4-amino-2-azabicyclo[3.2.1]octane-2-carbonyl)-1-cyclopropyl-7-fluoro-1H-benzo[d]imidazol-2-yl)-1-(cyclopropylmethyl)-1H-pyrrolo[2,3-b]pyridin-6-yl)ethyl)-2,2-difluorocyclopropane-1-carboxamide], the IC50 was found to be 0.0532 µM.

For the molecule `C[C@@H](NC(=O)[C@H]1CC1(F)F)c1ccc2cc(-c3nc4cc(C(=O)N5C[C@H](N)[C@@H]6CC[C@H]5C6)cc(F)c4n3C3CC3)n(CC3CC3)c2n1` [Example 227, (R)-N-((R)-1-(2-(5-((1S,4R,5R)-4-amino-2-azabicyclo[3.2.1]octane-2-carbonyl)-1-cyclopropyl-7-fluoro-1H-benzo[d]imidazol-2-yl)-1-(cyclopropylmethyl)-1H-pyrrolo[2,3-b]pyridin-6-yl)ethyl)-2,2-difluorocyclopropane-1-carboxamide], the concentration for half-maximal inhibition (IC50) came to 0.0468 µM.

With `COc1cc(C(=O)N2C[C@H](N)[C@@H]3CC[C@H]2C3)cc2nc(-c3cc4ccc([C@@H](C)NC(=O)C5CC(F)(F)C5)nc4n3CC3CC3)n(C)c12` [Example 228, N-((R)-1-(2-(5-((1S,4R,5R)-4-amino-2-azabicyclo[3.2.1]octane-2-carbonyl)-7-methoxy-1-methyl-1H-benzo[d]imidazol-2-yl)-1-(cyclopropylmethyl)-1H-pyrrolo[2,3-b]pyridin-6-yl)ethyl)-3,3-difluorocyclobutane-1-carboxamide], the half-maximal inhibitory concentration (IC50) came to 0.0823 µM.

Consider `COc1cc(C(=O)N2C[C@H](N)[C@@H]3CC[C@H]2C3)cc2nc(-c3cc4ccc([C@@H](C)NC(=O)C56CC(Cl)(C5)C6)nc4n3CC3CC3)n(C)c12` [Example 229, N-((R)-1-(2-(5-((1S,4R,5R)-4-amino-2-azabicyclo[3.2.1]octane-2-carbonyl)-7-methoxy-1-methyl-1H-benzo[d]imidazol-2-yl)-1-(cyclopropylmethyl)-1H-pyrrolo[2,3-b]pyridin-6-yl)ethyl)-3-chlorobicyclo[1.1.1]pentane-1-carboxamide], for which the IC50 was found to be 0.0833 µM.

In the case of `COc1cc(C(=O)N2C[C@H](N)[C@@H]3CC[C@H]2C3)cc2nc(-c3cc4ccc([C@@H](C)NC(=O)C56CC(C(F)(F)F)(C5)C6)nc4n3CC3CC3)n(C)c12` [Example 230, N-((R)-1-(2-(5-((1S,4R,5R)-4-amino-2-azabicyclo[3.2.1]octane-2-carbonyl)-7-methoxy-1-methyl-1H-benzo[d]imidazol-2-yl)-1-(cyclopropylmethyl)-1H-pyrrolo[2,3-b]pyridin-6-yl)ethyl)-3-(trifluoromethyl)bicyclo[1.1.1] pentane-1-carboxamide], the IC50 was found to be 0.127 µM.

For the molecule `COc1cc(C(=O)N2[C@H]3CC[C@@H]2[C@H](N)C3)cc2nc(-c3cc4ccc([C@@H](C)NC(=O)N5CCCC5)nc4n3CC3CC3)n(C)c12` [Example 234, N-((R)-1-(2-(5-((1R,2R,4S)-2-amino-7-azabicyclo[2.2.1]heptane-7-carbonyl)-7-methoxy-1-methyl-1H-benzo[d]imidazol-2-yl)-1-(cyclopropylmethyl)-1H-pyrrolo[2,3-b]pyridin-6-yl)ethyl)pyrrolidine-1-carboxamide], the IC50 was 0.0343 µM.

Consider `COc1cc(C(=O)N2[C@H]3CC[C@@H]2[C@H](N)C3)cc2nc(-c3cc4ccc([C@@H](C)NC(=O)N(C)C)nc4n3CC3CC3)n(C)c12` [Example 235, 3-((R)-1-(2-(5-((1R,2R,4S)-2-amino-7-azabicyclo[2.2.1]heptane-7-carbonyl)-7-methoxy-1-methyl-1H-benzo[d]imidazol-2-yl)-1-(cyclopropylmethyl)-1H-pyrrolo[2,3-b]pyridin-6-yl)ethyl)-1,1-dimethylurea], for which the half-inhibitory concentration (IC50) worked out at 0.0402 µM.

As for `COc1cc(C(=O)N2[C@H]3CC[C@@H]2[C@H](N)C3)cc2nc(-c3cc4ccc([C@@H](C)NC(=O)N5CC(O)C5)nc4n3CC3CC3)n(C)c12` [Example 236, N-((R)-1-(2-(5-((1R,2R,4S)-2-amino-7-azabicyclo[2.2.1]heptane-7-carbonyl)-7-methoxy-1-methyl-1H-benzo[d]imidazol-2-yl)-1-(cyclopropylmethyl)-1H-pyrrolo[2,3-b]pyridin-6-yl)ethyl)-3-hydroxyazetidine-1-carboxamide], the concentration for half-maximal inhibition (IC50) was determined as 0.0513 µM.

For the molecule `COc1cc(C(=O)N2[C@H]3CC[C@@H]2[C@H](N)C3)cc2nc(-c3cc4ccc([C@@H](C)NC(=O)N5CC[C@@H](F)C5)cc4n3CC3CC3)n(C)c12` [Example 237, (R)-N-((R)-1-(2-(5-((1R,2R,4S)-2-amino-7-azabicyclo[2.2.1]heptane-7-carbonyl)-7-methoxy-1-methyl-1H-benzo[d]imidazol-2-yl)-1-(cyclopropylmethyl)-1H-indol-6-yl)ethyl)-3-fluoropyrrolidine-1-carboxamide], the IC50 stood at 0.0185 µM.

As for `C[C@@H](NC(=O)N(C)C)c1ccc2cc(-c3nc4cc(C(=O)N[C@H]5CNCC[C@@H]5F)c(F)cc4n3C)n(CC3CC3)c2n1` [Example 239, 2-(1-(cyclopropylmethyl)-6-((R)-1-(3,3-dimethylureido)ethyl)-1H-pyrrolo[2,3-b]pyridin-2-yl)-6-fluoro-N-((3S,4S)-4-fluoropiperidin-3-yl)-1-methyl-1H-benzo[d]imidazole-5-carboxamide], the IC50 was 0.166 µM.

Still in this experiment, the particulars now being: recombinant PAD4 5 nM, 2 mM calcium chloride, 3 mM BAEE substrate; geometric mean of multiple experiments.
For the molecule `C[C@@H](NC(=O)c1cnn(C2CC2)c1)c1ccc2cc(-c3nc4cc(C(=O)N5C[C@H](N)[C@@H]6CC[C@H]5C6)cc(F)c4n3C3CC3)n(CC3CC3)c2n1` [Example 231, N-((R)-1-(2-(5-((1S,4R,5R)-4-amino-2-azabicyclo[3.2.1]octane-2-carbonyl)-1-cyclopropyl-7-fluoro-1H-benzo[d]imidazol-2-yl)-1-(cyclopropylmethyl)-1H-pyrrolo[2,3-b]pyridin-6-yl)ethyl)-1-cyclopropyl-1H-pyrazole-4-carboxamide], the half-maximal inhibitory concentration (IC50) stood at 0.0559 µM.

As for `C[C@@H](NS(=O)(=O)C1CC1)c1ccc2cc(-c3nc4cc(C(=O)N5C[C@H](N)[C@@H]6CC[C@H]5C6)cc(F)c4n3C3CC3)n(CC3CC3)c2n1` [Example 232, N-((R)-1-(2-(5-((1S,4R,5R)-4-amino-2-azabicyclo[3.2.1]octane-2-carbonyl)-1-cyclopropyl-7-fluoro-1H-benzo[d]imidazol-2-yl)-1-(cyclopropyImethyl)-1H-pyrrolo[2,3-b]pyridin-6-yl)ethyl)cyclopropanesulfonamide], the IC50 came to 0.0898 µM.

As to `C[C@@H](NC(=O)C12CC(C#N)(C1)C2)c1ccc2cc(-c3nc4cc(C(=O)N5C[C@H](N)[C@@H]6CC[C@H]5C6)cc(F)c4n3C3CC3)n(CC3CC3)c2n1` [Example 233, N-((R)-1-(2-(5-((1S,4R,5R)-4-amino-2-azabicyclo[3.2.1]octane-2-carbonyl)-1-cyclopropyl-7-fluoro-1H-benzo[d]imidazol-2-yl)-1-(cyclopropylmethyl)-1H-pyrrolo[2,3-b]pyridin-6-yl)ethyl)-3-cyanobicyclo[1.1.1]pentane-1-carboxamide], the IC50 turned out to be 0.0782 µM.

(Values after US11878965B2, “Inhibitors of peptidylarginine deiminases” (Gilead Sciences, Inc., priority 2020, dated 2024).)
